The values that follow come from patent publication US20220387604A1, “SELECTIVE DUAL HISTONE DEACETYLASE 6/8 (HDAC6/8) DEGRADERS AND METHODS OF USE THEREOF” (DANA-FARBER CANCER INSTITUTE, INC., priority 2019, published 2022).

The target in test [1] is T1, full length human HDAC8-EGFP (Homo sapiens, UniProt Q9BY41).
T1 construct: Cells stably expressing the full length human HDAC8-EGFP with mCherry reporter; expressed in transfected cells; Cilantro2 vector (Addgene, 74450)
T1 sequence (Q9BY41 1-377): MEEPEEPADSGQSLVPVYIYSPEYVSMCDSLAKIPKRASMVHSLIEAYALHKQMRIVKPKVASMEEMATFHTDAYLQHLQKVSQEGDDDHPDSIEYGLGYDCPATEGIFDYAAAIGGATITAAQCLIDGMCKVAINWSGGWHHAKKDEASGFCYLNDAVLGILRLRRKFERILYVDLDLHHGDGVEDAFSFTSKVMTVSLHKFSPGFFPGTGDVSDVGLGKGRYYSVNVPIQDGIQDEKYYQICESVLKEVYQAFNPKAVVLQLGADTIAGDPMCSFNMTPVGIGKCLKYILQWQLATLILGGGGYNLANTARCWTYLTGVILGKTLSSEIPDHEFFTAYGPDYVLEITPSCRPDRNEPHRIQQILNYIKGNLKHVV
Description: HDAC8 reporter assay (HDAC8-EGFP with mCherry reporter). The format is cell-based. The conditions noted are these: 5 hour treatment, FIG. 6; hook effect at higher concentrations. On the procedure: Cells stably expressing the full length human HDAC8-EGFP with mCherry reporter in Cilantro2 vector (Addgene, 74450) were seeded at 30-50% confluency in 384-well plates with 50 μL FluoroBrite™ DMEM media (Thermo Fisher Scientific, A18967) containing 10% FBS per well a day before compound treatment. Compounds were dispensed using a D300e Digital Dispenser (HP), normalized to 0.5% DMSO, and incubated with cells for 5 hours. The assay plate was imaged immediately using an Acumen® High Content Imager (TTP Labtech) with 488 nm and 561 nm lasers in […] per well format. The resulting images were analyzed using CellProfiler™.
A series of image analysis steps (‘image analysis pipeline’) was constructed. First, the red and green channels were aligned and cropped to target the middle of each well (to avoid analysis of heavily clumped cells at the edges), and a background illumination function was calculated for both red and green channels of each well individually and subtracted to correct for illumination variations across the 384-well plate from various sources of error. An additional step was then applied to the green channel to suppress the analysis of large auto fluorescent artifacts and enhance the analysis of cell specific fluorescence by way of selecting for objects under a given size, 30 A.U., and with a given shape, speckles. mCherry-positive cells were then identified in the red channel filtering for objects between 8-60 pixels in diameter and using intensity to distinguish between clumped objects. The green channel was then segmented into GFP positive and negative areas and objects were labeled as GFP positive if at least 40% of it overlapped with a GFP positive area. The fraction of GFP-positive cells/mCherry-positive cells in each well was then calculated, and the green and red images were rescaled for visualization. The values for the concentrations that lead to a 50% degradation (DC50) were calculated using the nonlinear fit variable slope model in GraphPad Prism software.

The target of another test is T2, CRBN (Homo sapiens, UniProt Q96SW2).
T2 construct: endogenous in cells; host or cells: Flip-In 293 cells stably expressing BRD4BD2-eGFP-P2A-mCherry
Description: Cellular CRBN engagement assay (competition with dBET6, BRD4BD2-eGFP reporter, Flip-In 293 cells). The test is classed as cell-based. The conditions noted are these: titrated in the presence of 100 nM dBET6, 5 h, Flip-In 293 cells expressing BRD4BD2-eGFP/mCherry. The protocol: BRD4BD2 was subcloned into mammalian pcDNA5/FRT Vector (Ampicillin and Hygromycin B resistant) modified to contain MCS-eGFP-P2A-mCherry. Stable cell lines expressing eGFP-protein fusion and mCherry reporter were generated using Flip-In 293 system. Plasmid (0.3 μg) and pOG44 (4.7 μg) DNA were preincubated in 100 μL of Opti-MEM I (Gibco, Life Technologies™) media containing 0.05 mg/ml Lipofectamine 2000 (Invitrogen™) for 20 min and added to Flip-In 293 cells containing 1.9 ml of DMEM media (Gibco, Life Technologies™) per well in a 6-well plate format (Falcon, 353046). Cells were propagated after 48 h and transferred into a […] (Coming, 430165) in DMEM media containing 50 μg/ml of Hygromycin B (REF 10687010, Invitrogen™) as a selection marker. Following 2-3 passage cycles, FACS (FACSAria II, BD) was used to enrich for cells expressing eGFP and mCherry.
Cells were seeded at 30-50% confluency in either 24, 48 or 96 well plates (3524, 3548, 3596 respectively, Costar) a day before compound treatment. The inventive compounds were titrated in the presence of 100 nM dBET6 and then were incubated with cells for 5 h following trypsinization and resuspension in DMEM media, transferred into 96-well plates (353910, Falcon) and analyzed by flow cytometer (Guava® easyCyte™ HT, Millipore). Signal from at least 3000 events per well was acquired and the eGFP and mCherry florescence monitored. Data was analyzed using FlowJo® (FlowJo®, LCC). Forward and side scatter outliers, frequently associated with cell debris, were removed leaving >90% of total cells, followed by removal of eGFP and mCherry signal outliers, leaving 88-90% of total cells creating the set used for quantification. The eGFP protein abundance relative to mCherry was then quantified as a ten-fold amplified ratio for each individual cell using the formula: 10× eGFP/mCherry. The median of the ratio was then calculated per set, normalized to the median of the DMSO ratio. […]

Molecules are shown by their SMILES.

With `O=C(/C=C/c1ccc(CN(CCOCCOCCNc2cccc3c2C(=O)N(C2CCC(=O)NC2=O)C3=O)CCc2c[nH]c3ccccc23)cc1)NO` (stereo not drawn) [Compound 1, (E)-3-(4-(((2-(1H-indol-3-yl)ethyl)(2-(2-(2-((2-(2,6-dioxopiperidin-3-yl)-1,3-dioxoisoindolin-4-yl)amino)ethoxy)ethoxy)ethyl)amino)methyl)phenyl)-N-hydroxyacrylamide], the “degradation of GFP tagged HDAC8 in the reporter cell lines” value (shortened to “degradation”) in test [1] is recorded as “degradation of GFP tagged HDAC8”. On CRBN, the IC50 amounted to 11.7 µM.

Take `O=C(/C=C/c1ccc(CN(CCCCCNc2cccc3c2C(=O)N(C2CCC(=O)NC2=O)C3=O)CCc2c[nH]c3ccccc23)cc1)NO` (stereo not drawn) [Compound 3, (E)-3-(4-(((2-(1H-indol-3-yl)ethyl)(5-((2-(2,6-dioxopiperidin-3-yl)-1,3-dioxoisoindolin-4-yl)amino)pentyl)amino)methyl)phenyl)-N-hydroxyacrylamide]: the “degradation” value in test [1] is on record as “degradation of GFP tagged HDAC8”. Also, the IC50 on CRBN worked out at 10 µM.

Take `O=C(/C=C/c1ccc(CN(CCOCCNc2cccc3c2C(=O)N(C2CCC(=O)NC2=O)C3=O)CCc2c[nH]c3ccccc23)cc1)NO` (stereo not drawn) [Compound 2, (E)-3-(4-(((2-(1H-indol-3-yl)ethyl)(2-(2-((2-(2,6-dioxopiperidin-3-yl)-1,3-dioxoisoindolin-4-yl)amino)ethoxy)ethyl)amino)methyl)phenyl)-N-hydroxyacrylamide]: the “degradation” value in test [1] is recorded as “degradation of GFP tagged HDAC8”. Besides, the IC50 on CRBN is 19.2 µM.
